Test results as given in BindingDB's records for PubMed 10604951 (University of Colorado, 2000).

target: Glutamate receptor ionotropic, NMDA 1 (Rattus norvegicus, UniProt P35439)

Row | SMILES | Ki [µM]
1 | COC(=O)c1cc(NC(=O)N(c2ccccc2)c2ccccc2)c2c(Cl)cc(Cl)cc2n1 [DCUK-Ome] | > 10
2 | NC(=O)N1c2ccccc2C=Cc2ccccc21 [5H-dibenzo[b,f]azepine-5-carboxamide] | > 10
3 | O=C(O)c1cc(NC(=O)N(c2ccccc2)c2ccccc2)c2c(Cl)cc(Cl)cc2n1 [DCUKA] | > 10
